# Data from article PMC9945734 (BMC Medicine, 2023).
# Read-outs that look alike come from different tables or passages of the source.
# How the values were obtained:
# [1] = biological target: T1, KLF5 protein (Homo sapiens, UniProt Q13887); assay: Fluorescence titration (quenching) of KLF5 protein; conditions: read-out: binding constant Kd
# T1 construct: made in house; host or cells: E. coli BL21 DE3
# Experimental: (§1) Wild-type or mutant KLF5 protein at 1 μM in 2 mL PBS was measured for fluorescence spectrum using a fluorescence spectrometer (HORIBA, Kyoto, Japan), and the fluorescence spectra were obtained for wavelengths of 300–500 nm. NTZ with various concentration ranges and various increments were used in the analysis, including 0.1–1 μM with an increment of 0.1 μM, 1–5 μM with an increment of 0.5 μM, 5–10 μM with an increment of 1 μM, and 10–30 μM with an increment of 5 μM. The incubation with NTZ was for 5 s at room temperature. Data were processed and fitted to obtain the binding affinities using the Origin software (OriginLab, Northampton, MA, USA), and Kd values were determined by the responses at […] wavelength.
# [2] = biological target: T2, KLF5^K369R protein (Homo sapiens, UniProt Q13887, K369R); assay: Fluorescence titration (quenching) of KLF5 protein; conditions: read-out: binding constant Kd
# T2 construct: made in house; host or cells: E. coli BL21 DE3
# Experimental: as §1
# [3] = biological target: T3, KLF5^K369Q protein (Homo sapiens, UniProt Q13887, K369Q); assay: Fluorescence titration (quenching) of KLF5 protein; conditions: read-out: binding constant Kd
# T3 construct: made in house; host or cells: E. coli BL21 DE3
# Experimental: as §1
# [4] = test system: PC-3 (KLF5 null) cells expressing KLF5^K369R; assay: CCK-8 cell viability assay; format: cell-based; conditions: Homo sapiens, CCK-8, 48 h
# Experimental: (§2) According to the manufacturer's instructions, cell viability was measured using a kit from Beyotime Biotechnology. Briefly, cells were seeded onto 96-well plates at 5 × 10^3 cells per well, incubated overnight, and then treated for 48 h with drugs at 0, 0.02, 0.05, 0.14, 0.41, 1.23, 3.7, 11.1, 33.3, and 100 μM. Four drugs were analyzed: furagin, nifuratel, nitazoxanide, and retapamulin. At the end of drug treatment, the medium was removed, the CCK-8 solution was added into each well at 100 μL/well and incubated for 1.5 h at 37°C, and the optical density (OD) was measured at 450 nm using a microplate reader (BioTek).
# [5] = test system: DU 145 (KLF5 null) cells expressing KLF5; assay: CCK-8 cell viability assay; format: cell-based; conditions: Homo sapiens, CCK-8, 48 h
# Experimental: as §2
# [6] = test system: DU 145 (KLF5 null) cells expressing KLF5^K369R; assay: CCK-8 cell viability assay; format: cell-based; conditions: Homo sapiens, CCK-8, 48 h
# Experimental: as §2
# [7] = test system: PC-3 (KLF5 null) cells expressing KLF5; assay: CCK-8 cell viability assay; format: cell-based; conditions: Homo sapiens, CCK-8, 48 h
# Experimental: as §2
# [8] = test system: PC-3-KQ cells; assay: 3D spheroid invasion assay and screening of FDA-approved drugs; format: cell-based, human; conditions: Homo sapiens; for activity at 0.01 µM / activity at 0.1 µM / activity at 1 µM / activity at 10 µM: 72 h, compared to vehicle control, read-out: Invasion rates (%) of each drug’s multiple concentrations
# How it was run: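 Cells were clustered into spheroids by centrifugation and grown 3 days, then embedded in matrigel-medium containing drug on day 4 and cultured another 3 days. Drugs were screened at 10 μM first, then at 0–10 μM, in duplicate wells. Invasion area is total area minus core sphere area from phase-contrast images.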
# [9] = test system: PC-3 (KLF5 null) cells expressing KLF5^K369Q; assay: CCK-8 cell viability assay; format: cell-based, human; conditions: Homo sapiens; PC-3 (KLF5 null), KLF5^K369Q; CCK-8, 48 h
# Experimental: as §2
# (§3) We also tested a wider range of NTZ concentrations in PC-3-KQ and DU 145-KQ cells using the CCK-8 assay by seeding 2 × 10^3 cells and 2.5 × 10^3 cells onto each well of 96-well plates. PC-3-KQ cells were treated with NTZ at 0, 0.01, 0.1, […], 2.5, and 5 μM, while DU 145-KQ cells were treated with NTZ at 0, 0.01, 0.1, 5, 10, and 20 μM for 0, 24, 48, and 72 h. The number of viable cells was determined using the CCK-8 solution as described above.
# [10] = test system: DU 145 (KLF5 null) cells expressing KLF5^K369Q; assay: CCK-8 cell viability assay; format: cell-based, human; conditions: Homo sapiens; DU 145 (KLF5 null), KLF5^K369Q; CCK-8, 48 h
# Experimental: as §2, §3
# [11] = secondary screening of 87 hit compounds (Table S1)
# [12] = third screening of 25 hit compounds (Table S2)
# T3 sequence (Q13887 whole entry K369Q): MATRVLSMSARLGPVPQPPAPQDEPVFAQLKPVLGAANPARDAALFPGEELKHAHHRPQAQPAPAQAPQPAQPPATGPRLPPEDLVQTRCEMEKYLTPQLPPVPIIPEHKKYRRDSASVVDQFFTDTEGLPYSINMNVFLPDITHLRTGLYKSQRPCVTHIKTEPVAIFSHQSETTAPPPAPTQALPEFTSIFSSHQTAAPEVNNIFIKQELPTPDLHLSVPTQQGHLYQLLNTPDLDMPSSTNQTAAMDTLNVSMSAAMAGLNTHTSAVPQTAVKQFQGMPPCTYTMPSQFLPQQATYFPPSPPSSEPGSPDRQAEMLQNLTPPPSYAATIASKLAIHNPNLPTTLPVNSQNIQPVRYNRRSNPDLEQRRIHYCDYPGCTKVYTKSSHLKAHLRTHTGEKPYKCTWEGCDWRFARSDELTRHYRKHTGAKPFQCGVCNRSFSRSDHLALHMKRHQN
# T2 sequence (Q13887 whole entry K369R): as the sequence (Q13887 whole entry K369Q) above, with Q369R counted along it
# T1 sequence (Q13887 whole entry): as the sequence (Q13887 whole entry K369Q) above, with Q369K counted along it
Kd [1] [µM],Kd [2] [µM],Kd [3] [µM],IC50 [4] [µM],IC50 [7] [µM],IC50 [9] [µM],SMILES,IC50 [5] [µM],IC50 [6] [µM],"activity at 0.01 µM ([8]; 0.01 μM (first column so headed), secondary screening of 87 hit compounds (Table S1)) [%]","activity at 0.01 µM ([8]; 0.01 μM (first column so headed), third screening of 25 hit compounds (Table S2)) [%]","activity at 0.01 µM ([8]; 0.01 μM (second column so headed), secondary screening of 87 hit compounds (Table S1)) [%]","activity at 0.01 µM ([8]; 0.01 μM (second column so headed), third screening of 25 hit compounds (Table S2)) [%]","activity at 0.1 µM [8, 11] [%]","activity at 0.1 µM [8, 12] [%]","activity at 1 µM [8, 11] [%]","activity at 1 µM [8, 12] [%]","activity at 10 µM [8, 11] [%]","activity at 10 µM [8, 12] [%]","inhibition at 0.1 µM ([8]; at 0.1 μM, read-out: inhibition of cell invasion) [%]",IC50 [10] [µM]
> 30,> 30,> 30,–,–,–,CC1(C)CCC(C)(C)c2cc(NC(=O)c3ccc(C(=O)O)cc3)ccc21 [Am80],–,–,–,–,–,–,–,–,–,–,–,–,–,–
–,–,–,18.7 ± 1,32 ± 1.6,18.6 ± 0.7,CSCC1CN(/N=C/c2ccc([N+](=O)[O-])o2)C(=O)O1 (centres unmarked) [Nifuratel],7.1 ± 0.7,14 ± 0.2,70,59.9,82.6,93.9,60.6,7.32,8.43,3.12,0.26,1.46,> 50,16.2 ± 0.8
